From patent US20100239501A1, “GENE SENSITIVE TO BONE/JOINT DISEASE AND USE THEREOF” (RIKEN, priority 2007, published 2010)

What was measured:
EDG2 = EDG2 (Homo sapiens, UniProt Q92633); test: Intracellular Ca2+ concentration (FLIPR tetra) in McA-RH7777 cells stably expressing EDG2; format: cell-based; design: Dainippon Pharmaceutical Co., Ltd. (cells); host or cells: McA-RH7777; settings: 0.03 to 10 μM LPA
Procedure: A forcible expression vector comprising an ORF sequence of human EDG2 [hEDG2-pcDNA3.1(+)] was purchased from UMR cDNA Resource Center. This plasmid was introduced into McA-RH7777 (Dainippon Pharmaceutical Co., Ltd.) using Lipofectamine LTX (Invitrogen), and the cells were cultured in a medium containing Geneticin for 14 to 20 days to acquire cells that stably express EDG2.
Next, an evaluation was made using FLIPR tetra (Molecular Devices) to confirm that stimulation with LPA raised intracellular Ca concentrations via the EDG2 expressed. That is, these cells were seeded to a 384-well plate, 0.03 to 10 μM LPA (Sigma) was added to each well, and it was confirmed that rises in intracellular Ca^2+ concentration occurred. LPA dose-dependently.

[1] = system: OA patient-derived fibroblast-like synovial cells (HFLS-OA); test: Inflammatory cytokine and MMP gene expression induction by LPA in human OA synovial cells; format: cell-based
Procedure: The inflammatory cytokine expression induction reaction of LPA, which is a ligand of EDG2, in OA patient-derived fibroblast-like synovial cells was analyzed. The method used is described below. OA patient-derived fibroblast-like synovial cells (HFLS-OA) were purchased from Cell application Co. The HFLS-OA was cultured using the attached Synoviocyte growth medium. The number of passages for the cells used was 4 or 5. The HFLS-OA was seeded to a 24-well plate at a ratio of 1×10^5 cells/well, and cultured using the attached Synoviocyte growth medium until they became confluent. Twelve hours before performing LPA stimulation, the medium was replaced with Ham's F-12 (Invitrogen) medium containing 0.1% fatty acid free bovine serum albumin (Sigma). In the time-related change analysis, 12 hours after the medium replacement, the cells were stimulated with 10 μM LPA; 0, 1, 2, 4, 8, 12 and 24 hours later, total RNA was extracted using ISOGEN (Nippon Gene), and the amounts expressed of the TNFA, IL1B, and IL6 genes, which are inflammatory cytokine genes, and of the MMP1, MMP3, and MMP13 genes, which are Matrix metalloproteinase (MMP) genes, were quantified by a method in accordance with Example 10 (n=4). In the dose dependency test, 12 hours after the medium replacement, the cells were stimulated with 0, 0.1, 0.3, 1, 3 and 10 μM LPA; 2 hours later, total RNA was extracted using ISOGEN (Nippon Gene), and the amounts expressed of the TNFA, IL1B, and IL6 genes, which are inflammatory cytokine genes, were quantified in the same manner as the above for the time-related change test (n=3). As a result of the time-related change test of inflammatory cytokine genes with LPA stimulation, the amounts of TNFA, IL1B and IL6 expressed rose transiently, with peaks reached 2, 4 and 1 hour later, respectively (FIGS. 8a, b and c). The amounts expressed of the MMP1, MMP3, and MMP13 genes, which are MMP genes, rose transiently, with peaks reached 8, 8 and 4 hours later, respectively (FIGS. 8d, e and f). It is known that in synovial cells, MMP genes have the expression thereof increased by inflammatory cytokines. In this experiment, the rise in the expression of the inflammatory cytokine genes preceded the rise in the expression of the MMP genes; therefore, the rise in the expression of MMP genes with LPA stimulation may be a secondary reaction via an inflammatory cytokine. As a result of the dose dependency test, it was shown that LPA raises the expression of inflammatory cytokine genes dose-dependently (FIGS. 8g, h and i). The amounts expressed of the TNFA and IL1B genes nearly reached a plateau at 1 μM, whereas the expression of the IL6 gene rose dose-dependently up to 10 μM. […] From this finding, it is thought that the inflammatory cytokine gene group induction reaction of LPA is very highly likely to be a reaction mediated mainly by the EDG2 gene.

Chain of EDG2 (Q92633 whole entry): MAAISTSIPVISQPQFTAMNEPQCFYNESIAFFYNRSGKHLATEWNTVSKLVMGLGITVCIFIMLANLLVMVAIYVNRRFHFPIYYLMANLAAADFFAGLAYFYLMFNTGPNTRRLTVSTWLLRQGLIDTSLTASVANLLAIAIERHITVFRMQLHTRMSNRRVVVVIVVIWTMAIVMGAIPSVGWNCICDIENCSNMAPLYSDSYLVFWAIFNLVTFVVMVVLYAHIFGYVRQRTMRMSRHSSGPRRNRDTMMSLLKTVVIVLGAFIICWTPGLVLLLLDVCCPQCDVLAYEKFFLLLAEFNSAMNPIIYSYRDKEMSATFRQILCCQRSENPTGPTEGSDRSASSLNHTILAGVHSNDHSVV

Compound: CCCCCCCC/C=C\CCCCCCCC(=O)OC[C@@H](O)COP(=O)(O)O [LPA, 1-Oleoyl-sn-Glycero-3-Phosphate]
- rises in intracellular Ca2+ concentration (EDG2): dose-dependently
- rise of expression of inflammatory cytokine genes (TNFA, IL1B, IL6) ([1]; 0, 0.1, 0.3, 1, 3 and 10 μM LPA, 2 hours, n=3): dose-dependently
- time of peak of IL1B expression ([1]; 10 μM LPA, transient rise, n=4): 4 h
- time of peak of IL6 expression ([1]; 10 μM LPA, transient rise, n=4): 1 h
- time of peak of MMP1 gene expression ([1]; 10 μM LPA, transient rise, n=4): 8 h
- time of peak of MMP3 gene expression ([1]; 10 μM LPA, transient rise, n=4): 8 h
- time of peak of MMP13 gene expression ([1]; 10 μM LPA, transient rise, n=4): 4 h
- time of peak of TNFA expression ([1]; 10 μM LPA, transient rise, n=4): 2 h
- LPA concentration at which IL1B gene expression nearly reached a plateau ([1]; dose dependency test, 2 hours): 1 µM
- LPA concentration at which TNFA gene expression nearly reached a plateau ([1]; dose dependency test, 2 hours): 1 µM
- LPA concentration up to which IL6 gene expression rose dose-dependently ([1]; dose dependency test, 2 hours): up to 10 μM
